Laboratory results taken from ChEMBL document CHEMBL1130311, “Design and synthesis of a possible mimic of a thrombin-binding DNA aptamer” (Bioorg Med Chem Lett, 1997).
Calls of active or inactive are those of the source. No cut-off for these calls is given here.

Target: Prothrombin (Homo sapiens) (UniProt P00734)
Experiment: Tested for thrombin inhibitory activity by fibrinogen dependent thrombin assay; Inactive

## Cc1cn([C@H]2C[C@@H]3OP(=O)(O)OC[C@H]4O[C@@H](n5cnc6c(O)nc(N)nc65)C[C@@H]4OP(=O)(O)OC[C@H]4O[C@@H](C[C@@H]4OP(=O)(O)OC(C)C)n4cc(c(=O)[nH]c4=O)COCOC[C@H]3O2)c(=O)[nH]c1=O
  Activity: inactive
